Patent publication US10696692B2, “Amido-benzyl sulfone and sulfoxide derivates” (Forma TM, LLC, priority 2012, dated 2020)
Like-named read-outs stand apart in the source and are kept apart here.

What was measured:
[1] = tested on: A2780 cells; experiment: Assay 2: In-Vitro Cell Proliferation Assay (A2780 cells, SRB readout, 72 hours); format: cell-based; conditions: A2780 cells, 72 hours, SRB, read-out: Cell Proliferation (IC50);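 also: viable cells counted via sulforhodamine B staining, absorbance at 570 nm, after 72 h exposure at 37 °C, DMSO 0.1% as control, media-only background subtracted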
[2] = biological target: NAMPT (Homo sapiens (Human), UniProt P43490); experiment: Assay 1: Biochemical Inhibition Assay (NAMPT enzymatic reaction, NMN quantified by mass spectrometry); conditions: read-out: Biochemical (IC50);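 also: recombinant His-tagged human NAMPT preincubated with compound 15 min, then reacted 30 min at rt with 1 µM NAM, 100 µM PRPP, 2.5 mM ATP, NMN product read by RapidFire MS, normalized to L-Cystathionine internal standard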
NAMPT, sequence (P43490 whole entry): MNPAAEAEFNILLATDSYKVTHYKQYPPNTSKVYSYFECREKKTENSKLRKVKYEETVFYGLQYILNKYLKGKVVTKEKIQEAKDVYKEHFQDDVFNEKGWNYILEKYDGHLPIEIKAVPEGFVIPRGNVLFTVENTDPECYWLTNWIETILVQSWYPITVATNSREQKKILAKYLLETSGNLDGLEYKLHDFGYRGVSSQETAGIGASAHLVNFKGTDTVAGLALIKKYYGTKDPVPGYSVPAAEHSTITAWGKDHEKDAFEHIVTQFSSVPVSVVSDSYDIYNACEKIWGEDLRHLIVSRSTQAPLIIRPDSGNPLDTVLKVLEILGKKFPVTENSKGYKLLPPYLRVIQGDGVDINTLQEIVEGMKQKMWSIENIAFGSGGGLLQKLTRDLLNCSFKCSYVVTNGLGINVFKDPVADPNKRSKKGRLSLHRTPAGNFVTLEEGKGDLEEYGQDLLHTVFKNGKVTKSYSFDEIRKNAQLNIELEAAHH

Row | Molecule | IC50 ([1]; Homo sapiens, A2780, 72 h) [nM] | IC50 [2] [nM] | IC50 [1] [nM]
1 | O=C(NCc1ccc(S(=O)(=O)C2CCCN(C(=O)c3ccccc3)C2)cc1)c1cnc2[nH]ncc2c1 (stereo not shown) [Example 350, N-[[4-[(1-benzoyl-3-piperidyl)sulfonyl]phenyl]methyl]-1H-pyrazolo[3,4-b]pyridine-5-carboxamide] | 258 | 300 | –
2 | O=C(NCc1ccc(S(=O)(=O)[C@@H]2CCOC2)cc1)c1cnc2[nH]ncc2c1 [Example 233, N-[[4-((3R)-tetrahydrofuran-3-yl]sulfonylphenyl]methyl]-1H-pyrazolo[3,4-b]pyridine-5-carboxamide] | 1590 | 227 | –
3 | N#CCCN1CCN(S(=O)(=O)c2ccc(CNC(=O)c3ccc4nccn4c3)cc2)CC1 [Example 104, Imidazo[1,2-a]pyridine-6-carboxylic acid 4-[4-(2-cyano-ethyl)-piperazine-1-sulfonyl]-benzylamide] | 8.8 | 26.9 | –
4 | NC12CC1CN(S(=O)(=O)c1ccc(CNC(=O)c3ccc4nccn4c3)cc1)C2 (stereo not shown) [Example 320, N-[[4-[(5-amino-3-azabicyclo[3.1.0]hexan-3-yl)sulfonyl]phenyl]methyl] imidazo[1,2-a]pyridine-6-carboxamide] | 61.9 | 68.7 | –
5 | O=C(NCc1ccc(S(=O)(=O)C2CCN(CC(F)(F)F)CC2)cc1)c1cnc2nccn2c1 [Example 209, N-[[4-[[1-(2,2,2-trifluoroethyl)-4-piperidyl]sulfonyl]phenyl]methyl]imidazo[1,2-a]pyrimidine-6-carboxamide] | 8.84 | 3.72 | –
6 | O=C(NCc1ccc(S(=O)(=O)N2CCCC(O)C2)cc1)c1cnc2nccn2c1 (racemic) [Example 32, Imidazo[1,2-a]pyrimidine-6-carboxylic acid 4-(3-hydroxy-piperidine-1-sulfonyl)-benzylamide] | 861 | 7.7 | –
7 | O=C(NCc1ccc(S(=O)(=O)[C@H]2CCOC2)cc1)c1cnc2nccn2c1 [Example 76, Imidazo[1,2-a]pyrimidine-6-carboxylic acid 4-[(S)-(tetrahydro-furan-3-yl)sulfonyl]-benzylamide] | – | 9.8 | 423
8 | O=C(NCc1ccc(S(=O)(=O)C2CCOCC2)cc1)c1ccc2nccn2c1 [Example 200, N-[(4-tetrahydropyran-4-ylsulfonylphenyl)methyl] imidazo[1,2-a]pyridine-6-carboxamide] | 14.2 | 34.5 | –
9 | O=C(NCc1ccc(S(=O)(=O)N2CCOC3(CCNCC3)C2)cc1)c1ccc2nccn2c1 [Example 319, N-[[4-(1-oxa-4,9-diazaspiro[5.5]undecan-4-ylsulfonyl)phenyl]methyl] imidazo[1,2-a]pyridine-6-carboxamide] | 102 | 106 | –
10 | O=C(NCc1ccc(S(=O)(=O)N2CCC[C@H](O)C2)cc1)c1cc2ccncc2o1 [Example 51, Furo[2,3-c]pyridine-2-carboxylic acid 4-((S)-3-hydroxy-piperidine-1-sulfonyl)-benzylamide] | – | 22.2 | 39.7
11 | O=C(NCc1ccc(S(=O)(=O)N2CCC[C@@H]2CO)cc1)c1ccc2nccn2c1 [Example 106, Imidazo[1,2-a]pyridine-6-carboxylic acid 4-((R)-2-hydroxymethyl-pyrrolidine-1-sulfonyl)-benzylamide] | 57.7 | 48.6 | –
12 | O=C(NCc1ccc(S(=O)(=O)N2CCC(O)CC2)cc1)c1cnc2[nH]ncc2c1 [Example 30, 1H-Pyrazolo[3,4-b]pyridine-5-carboxylic acid 4-(4-hydroxy-piperidine-1-sulfonyl)-benzylamide] | 205 | 178 | –
13 | CCCN1CCC([S+]([O-])c2ccc(CNC(=O)N3Cc4ccncc4C3)cc2)CC1 (stereo not shown) [Example 377, N-[[4-[(1-propyl-4-piperidyl)sulfinyl]phenyl]methyl]-1,3-dihydropyrrolo[3,4-c]pyridine-2-carboxamide] | 24.1 | 24.9 | –
14 | Nc1ncc2c(n1)CN(C(=O)NCc1ccc(S(=O)(=O)C3CCOCC3)cc1)C2 [Example 277, 2-amino-N-[(4-tetrahydropyran-4-ylsulfonylphenyl)methyl]-5,7-dihydropyrrolo[3,4-d]pyrimidine-6-carboxamide] | 2000 | 2000 | –
15 | O=C(NCc1ccc([S+]([O-])C2CCN(CC(F)(F)F)CC2)cc1)c1ccc2nccn2c1 (stereo not shown) [Example 364, N-[[4-[[1-(2,2,2-tnfluoroethyl)-4-piperidyl]sulfinyl]phenyl]methyl]imidazo[1,2-a]pyridine-6-carboxamide] | 3.51 | 2.93 | –
16 | CC(C)(C)OC(=O)NC1CC2(CCN(S(=O)(=O)c3ccc(CNC(=O)c4ccc5nccn5c4)cc3)CC2)C1 [Example 127] | 2.77 | 14.5 | –

Row | Molecule | IC50 ([1]; Homo sapiens, A2780, 72 h) [nM] | IC50 [2] [nM] | IC50 [1] [nM]
17 | 1H-Pyrazolo[3,4- b]pyridine-5-carboxylic acid 4-(4-hydroxymethyl- piperidine-1-sulfonyl)- benzylamide [Example 174] | – | 152 | 84.4
18 | CN1CCC2CN(S(=O)(=O)c3ccc(CNC(=O)c4ccc5nccn5c4)cc3)CC21 (racemic) [Example 144, cis-Imidazo[1,2-a]pyridine-6-carboxylic acid 4-(1-methyl-hexahydro-pyrrolo[3,4-b]pyrrole-5-sulfonyl)-benzylamide] | 9.6 | 54 | –
19 | CC(=O)N1CC2(C1)CN(S(=O)(=O)c1ccc(CNC(=O)c3ccc4nccn4c3)cc1)C2 [Example 259, N-[[4-[(6-acetyl-2,6-diazaspiro[3.3]heptan-2-yl)sulfonyl]phenyl]methyl] imidazo[1,2-a]pyridine-6-carboxamide] | 70 | 37.8 | –
20 | O=C(NCc1ccc(S(=O)(=O)[C@H]2CCOC2)cc1)c1cc2cnccc2[nH]1 [Example 221, N-[[4-[(3S)-tetrahydrofuran-3-yl]sulfonylphenyl]methyl]-1H-pyrrolo[3,2-c]pyridine-2-carboxamide] | 347 | 125 | –
21 | CC1(O)CCN(S(=O)(=O)c2ccc(CNC(=O)c3ccc4nccn4c3)cc2)C1 (racemic) [Example 161, Imidazo[1,2-a]pyridine-6-carboxylic acid 4-(3-hydroxy-3-methyl-pyrrolidine-1-sulfonyl)-benzylamide] | 47.2 | 52.1 | –
22 | O=C(NCc1ccc(S(=O)(=O)N2CC(C3CCCNC3)c3ccccc32)cc1)c1ccc2nccn2c1 (stereo not shown) [Example 330, N-[[4-[3-(3-piperidyl)indolin-1-yl]sulfonylphenyl]methyl] imidazo[1,2-a]pyridine-6-carboxamide] | 42.8 | 22.2 | –
23 | CC(C)(C)OC(=O)N1CCC2(CCCN2S(=O)(=O)c2ccc(CNC(=O)c3ccc4nccn4c3)cc2)C1 (stereo not shown) [Example 237, tert-butyl 1-[4-[(imidazo[1,2-a]pyridine-6-carbonylamino)methyl]phenyl] sulfonyl-1,7-diazaspiro[4.4]nonane-7-carboxylate] | 38.8 | 109 | –
24 | O=C(NCc1ccc(S(=O)(=O)N2CC3CCC(F)(F)C3C2)cc1)c1ccc2nccn2c1 (single isomer, unassigned) [Example 74, cis-Imidazo[1,2-a]pyridine-6-carboxylic acid 4-(4,4-difluoro-hexahydro-cyclopenta[c]pyrrole-2-sulfonyl)-benzylamide] | – | 5 | 2.7
25 | O=C(NCc1ccc(S(=O)(=O)N2CC[C@H]3C[C@H]32)cc1)c1ccc2nccn2c1 (racemic) [Example 166, cis-Imidazo[1,2-a]pyridine-6-carboxylic acid 4-(2-aza-bicyclo[3.1.0]hexane-2-sulfonyl)-benzylamide] | 9.6 | 17.2 | –
26 | O=C(NCc1ccc([S+]([O-])C2CCN(CC(F)(F)F)CC2)cc1)c1cc2ccncc2o1 (stereo not shown) [Example 356, N-[[4-[[1-(2,2,2-trifluoroethyl)-4-piperidyl]sulfinyl]phenyl]methyl]furo[2,3-c]pyridine-2-carboxamide] | 3.25 | 13.5 | –
27 | CC(C)(C)OC(=O)N1CCC2(CC1)CCN(S(=O)(=O)c1ccc(CNC(=O)c3ccc4nccn4c3)cc1)C2 [Example 235, tert-butyl 2-[4-[(imidazo[1,2-a]pyridine-6-carbonylamino)methyl]phenyl] sulfonyl-2,8-diazaspiro[4.5]decane-8-carboxylate] | 36.3 | 16.4 | –
28 | O=C(NCc1ccc(S(=O)(=O)N2CCCC3(CCCCN3)C2)cc1)c1ccc2nccn2c1 (stereo not shown) [Example 336, N-[[4-(1,8-diazaspiro[5.5]undecan-8-ylsulfonyl)phenyl]methyl] imidazo[1,2-a]pyridine-6-carboxamide] | – | 379 | 399
29 | CC(C)(C)OC(=O)NCC12CC(CN1S(=O)(=O)c1ccc(CNC(=O)c3ccc4nccn4c3)cc1)C2 [Example 129, [2-(4-{[(Imidazo[1,2-a]pyridine-6-carbonyl)-amino]-methyl}-benzenesulfonyl)-2-aza-bicyclo[2.1.1]hex-1-ylmethyl]-carbamic acid tert-butyl ester] | 8.75 | 34 | –
30 | O=C(NCc1ccc(S(=O)(=O)C2CCN(C3CCOCC3)CC2)cc1)c1cnc2[nH]ncc2c1 [Example 206, N-[[4-[(1-tetrahydropyran-4-yl-4-piperidyl)sulfonyl]phenyl]methyl]-1H-pyrazolo[3,4-b]pyridine-5-carboxamide] | 21.1 | 59.2 | –
31 | CC(C)(C)OC(=O)N1CCCCC12CCN(S(=O)(=O)c1ccc(CNC(=O)c3ccc4nccn4c3)cc1)C2 (stereo not shown) [Example 243, tert-butyl 2-[4-[(imidazo[1,2-a]pyridine-6-carbonylamino)methyl]phenyl] sulfonyl-2,6-diazaspiro[4.5]decane-6-carboxylate] | 43.3 | 14.9 | –
32 | O=C(NCc1ccc(S(=O)(=O)C2CCCOC2)cc1)c1cc2ccncc2o1 (stereo not shown) [Example 275, N-[(4-tetrahydropyran-3-ylsulfonylphenyl)methyl]furo [2,3-c]pyridine-2-carboxamide] | 50.3 | 30.4 | –
